Our source for the Kd values is paper PMC4791597 (Scientific Reports, 2016).

This test has as its target T1, PrP^C (cellular prion protein) (Mus musculus, UniProt P04925).
T1 construct: gene Prnp
Type of test: binding.

T1 sequence (P04925 23-230 limits assumed): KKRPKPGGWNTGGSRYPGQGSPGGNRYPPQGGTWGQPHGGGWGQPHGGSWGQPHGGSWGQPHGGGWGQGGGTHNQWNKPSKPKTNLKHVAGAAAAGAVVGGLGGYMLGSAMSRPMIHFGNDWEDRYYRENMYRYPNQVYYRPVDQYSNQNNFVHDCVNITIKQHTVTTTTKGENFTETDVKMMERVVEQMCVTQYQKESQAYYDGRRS

For orientation: Kd means the free concentration of one partner at which half of the binding sites on the other are occupied at equilibrium, for simple one-to-one binding. A higher Kd goes with lower affinity. Regarding `C[n+]1ccc(C2=C3C=CC(=N3)C(c3cc[n+](C)cc3)=c3ccc4[n]3[Fe+][n]3c2ccc3C(c2cc[n+](C)cc2)=C2C=CC(=N2)C=4c2cc[n+](C)cc2)cc1` [Fe(III)-TMPyP], the Kd is 1210 nM.
